# “Also recorded” adds a separate entry of the source.
# Tests used:
# Vero cell line = assay: Cytotoxicity of herbal extracts on Vero cell line, MTT assay; conditions: concentration not printed
# SARS-CoV-2 [1] = format: cell-based
# SARS-CoV-2 [2] = conditions: prophylactic/therapeutic (full-time) setting, at 37° and 4° C., by CPE and RT-PCR; cited from earlier work
compound,measurement,setting,value
CCN(CC)CCCC(C)Nc1ccnc2cc(Cl)ccc12 (stereo not drawn) [Chloroquine phosphate],cytotoxicity / percent inhibition (MTT assay),Vero cell line,non-toxic
same,cytotoxicity / percent inhibition (MTT assay),Vero cell line; listed as Chloroquine,no inhibition
same,"viral load inhibition (increasing Cq value, decreasing percent viral copy number)","SARS-CoV-2 [1]; reference drugs: Chloroquine phosphate 9.69 μM/mL, Remdesivir 8.297 μM/mL",viral load inhibition
same,inhibition of SARS-CoV-2,SARS-CoV-2 [1]; viral full entry and post entry treatment points,inhibition of SARS-CoV-2
CCN(CCO)CCCC(C)Nc1ccnc2cc(Cl)ccc12 (stereo not drawn) [hydroxychloroquine],antiviral activity,SARS-CoV-2 [2],significant antiviral activity
CCC(CC)COC(=O)[C@H](C)N[P@](=O)(OC[C@H]1O[C@@](C#N)(c2ccc3c(N)ncnn23)[C@H](O)[C@@H]1O)Oc1ccccc1 [Remdesivir],cytotoxicity / percent inhibition (MTT assay),Vero cell line,no inhibition; also recorded: non-toxic
